Measured values published in PubChem BioAssay (NCI).
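Cultured in 96-well plates, cells were exposed to test compound for 48 hours across five concentrations. Abbreviation: GI50, concentration required for 50% inhibition of growth. TGI is the concentration that stops growth completely.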

How the values were obtained:
Assay in all cases: NCI tumour cell line growth inhibition, 48 h
[1] = tested on: 786-0 renal
[2] = tested on: A498 renal
[3] = tested on: A549 NSCLC
[4] = tested on: ACHN renal
[5] = tested on: CAKI-1 renal
[6] = tested on: CCRF-CEM leukemia
[7] = tested on: COLO 205 colon
[8] = tested on: DU-145 prostate
[9] = tested on: EKVX NSCLC
[10] = tested on: HCC-2998 colon
[11] = tested on: HCT-116 colon
[12] = tested on: HCT-15 colon
[13] = tested on: HL-60(TB) leukemia
[14] = tested on: HOP-62 NSCLC
[15] = tested on: HOP-92 NSCLC
[16] = tested on: HS 578T breast
[17] = tested on: HT29 colon
[18] = tested on: IGROV1 ovarian
[19] = tested on: K-562 leukemia
[20] = tested on: KM12 colon
[21] = tested on: LOX IMVI melanoma
[22] = tested on: M14 melanoma
[23] = tested on: MALME-3M melanoma
[24] = tested on: MCF7 breast
[25] = tested on: MDA-MB-231 breast
[26] = tested on: MDA-MB-435
[27] = tested on: MOLT-4 leukemia
[28] = tested on: NCI-H226 lung
[29] = tested on: NCI-H23 lung
[30] = tested on: NCI-H460 lung
[31] = tested on: NCI-H522 lung
[32] = tested on: NCI/ADR-RES ovarian
[33] = tested on: OVCAR-3 ovarian
[34] = tested on: OVCAR-4 ovarian
[35] = tested on: OVCAR-5 ovarian
[36] = tested on: OVCAR-8 ovarian
[37] = tested on: PC-3 prostate
[38] = tested on: RPMI-8226 leukemia
[39] = tested on: RXF 393 renal
[40] = tested on: SF-268 CNS
[41] = tested on: SF-295 CNS
[42] = tested on: SF-539 CNS
[43] = tested on: SK-MEL-28 melanoma
[44] = tested on: SK-MEL-5 melanoma
[45] = tested on: SK-OV-3 ovarian
[46] = tested on: SN12C renal
[47] = tested on: SNB-19 CNS
[48] = tested on: SNB-75 CNS
[49] = tested on: SR leukemia
[50] = tested on: SW-620 colon
[51] = tested on: T-47D breast
[52] = tested on: TK-10 renal
[53] = tested on: U251 CNS
[54] = tested on: UACC-257 melanoma
[55] = tested on: UACC-62 melanoma
[56] = tested on: UO-31 renal
[57] = tested on: SK-MEL-2 melanoma

c1ccc(CN=C(NCc2ccccc2)NCc2ccccc2)cc1
GI50 [1]: 11.4 µM
TGI [1]: 25.7 µM
GI50 [2]: 2.2 µM
TGI [2]: 14.7 µM
GI50 [3]: 11.2 µM
TGI [3]: 25.3 µM
GI50 [4]: 6.03 µM
TGI [4]: 21.1 µM
GI50 [5]: 11.1 µM
TGI [5]: 26.7 µM
GI50 [6]: 10.2 µM
TGI [6]: 62.5 µM
GI50 [7]: 1.98 µM
TGI [7]: 4.03 µM
GI50 [8]: 5.38 µM
TGI [8]: 19.4 µM
GI50 [9]: 1.85 µM
TGI [9]: 7.81 µM
GI50 [10]: 3.65 µM
TGI [10]: 12.9 µM
GI50 [11]: 3.97 µM
TGI [11]: 17.3 µM
GI50 [12]: 14.3 µM
TGI [12]: > 100 µM
GI50 [13]: 2.69 µM
TGI [13]: 13.2 µM
GI50 [14]: 12.7 µM
TGI [14]: 25.9 µM
GI50 [15]: 3.18 µM
TGI [15]: 12.7 µM
GI50 [16]: 10.3 µM
TGI [16]: 27.3 µM
GI50 [17]: 5.58 µM
TGI [17]: 19.8 µM
GI50 [18]: 1.66 µM
TGI [18]: 9.51 µM
GI50 [19]: 2.6 µM
TGI [19]: 11.9 µM
GI50 [20]: 3.36 µM
TGI [20]: 13.1 µM
GI50 [21]: 5.52 µM
TGI [21]: 19.3 µM
GI50 [22]: 4.18 µM
TGI [22]: 17.3 µM
GI50 [23]: 3.56 µM
TGI [23]: 17.1 µM
GI50 [24]: 6.37 µM
TGI [24]: 19.6 µM
GI50 [25]: 10.6 µM
TGI [25]: 25.4 µM
GI50 [26]: 3.21 µM
TGI [26]: 15.1 µM
GI50 [27]: 3.77 µM
TGI [27]: 19.1 µM
GI50 [28]: 6.04 µM
TGI [28]: 21.4 µM
GI50 [29]: 4.66 µM
TGI [29]: 17.8 µM
GI50 [30]: 5.1 µM
TGI [30]: 19.5 µM
GI50 [31]: 8.35 µM
TGI [31]: 21.3 µM
GI50 [32]: 30.6 µM
TGI [32]: > 100 µM
GI50 [33]: 3.11 µM
TGI [33]: 14.9 µM
GI50 [34]: 6.23 µM
TGI [34]: 36.8 µM
GI50 [35]: 10.1 µM
TGI [35]: 24.5 µM
GI50 [36]: 6.44 µM
TGI [36]: 21.8 µM
GI50 [37]: 2.76 µM
TGI [37]: 12.9 µM
GI50 [38]: 4.7 µM
TGI [38]: 24.4 µM
GI50 [39]: 14.3 µM
TGI [39]: 28.2 µM
GI50 [40]: 4.32 µM
TGI [40]: 18.5 µM
GI50 [41]: 1.21 µM
TGI [41]: 6.49 µM
GI50 [42]: 11.9 µM
TGI [42]: 27.5 µM
GI50 [43]: 14.8 µM
TGI [43]: 29.2 µM
GI50 [44]: 3.95 µM
TGI [44]: 14.6 µM
GI50 [45]: 10.9 µM
TGI [45]: 23.6 µM
GI50 [46]: 6.92 µM
TGI [46]: 24.1 µM
GI50 [47]: 11 µM
TGI [47]: 25 µM
GI50 [48]: 2.37 µM
TGI [48]: 13 µM
GI50 [49]: 6.21 µM
TGI [49]: 29.5 µM
GI50 [50]: 4.42 µM
TGI [50]: 17.9 µM
GI50 [51]: 4.7 µM
TGI [51]: 17 µM
GI50 [52]: 10.7 µM
TGI [52]: 27.3 µM
GI50 [53]: 10.2 µM
TGI [53]: 23.5 µM
GI50 [54]: 3.23 µM
TGI [54]: 11.1 µM
GI50 [55]: 10.1 µM
TGI [55]: 22.6 µM
GI50 [56]: 3.07 µM
TGI [56]: 15.2 µM

COc1cc(/C=C/C(=O)c2ccc(NC(=O)CSc3nnc(-c4cc(OC)c(OC)c(OC)c4)n3-c3ccccc3)cc2)cc(OC)c1OC
GI50 [1]: 1.05 µM
TGI [1]: 4.63 µM
GI50 [14]: 1.84 µM
TGI [14]: 7.06 µM
GI50 [15]: 2.06 µM
TGI [15]: 9.67 µM
GI50 [16]: 20.4 µM
TGI [16]: > 100 µM
GI50 [25]: 4.09 µM
TGI [25]: > 100 µM
GI50 [34]: 1.8 µM
TGI [34]: > 100 µM
GI50 [47]: 2.18 µM
TGI [47]: > 100 µM
GI50 [48]: 0.429 µM
TGI [48]: 14.2 µM
GI50 [49]: 0.316 µM
TGI [49]: > 100 µM
GI50 [52]: 9.3 µM
TGI [52]: > 100 µM
GI50 [53]: 0.527 µM
TGI [53]: > 100 µM

CC(C)(C)c1ccc(/C=N/NC(=O)CSCC(=O)N/N=C/c2ccc(C(C)(C)C)cc2)cc1
TGI [1]: 4.4 µM
TGI [2]: 8.67 µM
TGI [3]: 11.6 µM
TGI [4]: 13.5 µM
TGI [7]: 3.7 µM
TGI [8]: > 100 µM
TGI [9]: 19.8 µM
TGI [10]: 4.8 µM
TGI [12]: 15.8 µM
TGI [13]: 5.21 µM
TGI [14]: 5.84 µM
TGI [15]: 38.9 µM
TGI [16]: 7.61 µM
TGI [17]: 3.87 µM
TGI [18]: 10.4 µM
TGI [19]: 6.7 µM
TGI [20]: 6.18 µM
TGI [22]: 3.89 µM
TGI [23]: 24.8 µM
TGI [24]: 6.05 µM
TGI [25]: 2.43 µM
TGI [27]: 5.02 µM
TGI [28]: 4.93 µM
TGI [29]: 6.01 µM
TGI [30]: 15 µM
TGI [31]: 21.9 µM
TGI [32]: 15.5 µM
TGI [34]: > 100 µM
TGI [35]: 12.5 µM
TGI [36]: 6.49 µM
TGI [37]: 18.2 µM
TGI [38]: > 100 µM
TGI [39]: 4.29 µM
TGI [40]: 10.9 µM
TGI [57]: 5.72 µM
TGI [43]: 20.6 µM
TGI [44]: 4.3 µM
TGI [45]: 19.4 µM
TGI [46]: 4.82 µM
TGI [47]: 17.2 µM
TGI [48]: 20.1 µM
TGI [49]: 3.76 µM
TGI [50]: 6.11 µM
TGI [51]: 26.3 µM
TGI [52]: 16.6 µM
TGI [53]: 5.87 µM
TGI [54]: 15.2 µM
TGI [55]: 32 µM
TGI [56]: 15.7 µM
